Biological target: T1, ΔF508-CFTR (Homo sapiens, UniProt P13569, DEL508-508)
T1 construct: expressed in transfected cells
Test: EC50 and relative efficacy as modulators of ΔF508-CFTR (membrane potential optical assay)
Format: cell-based
Conditions: for % Activity: relative efficacy
Text: I) Membrane Potential Optical Methods for Assaying ΔF508-CFTR Modulation Properties of Compounds
The optical membrane potential assay utilized voltage-sensitive FRET sensors described by Gonzalez and Tsien (See., Gonzalez, J. E. and R. Y. Tsien (1995) “Voltage sensing by fluorescence resonance energy transfer in single cells” Biophys J 69(4): 1272-80, and Gonzalez, J. E. and R. Y. Tsien (1997) “Improved indicators of cell membrane potential that use fluorescence resonance energy transfer” Chem Biol 4(4): 269-77) in combination with instrumentation for measuring fluorescence changes such as the Voltage/Ion Probe Reader (VIPR) (See Gonzalez, J. E., K. Oades, et al. (1999) “Cell-based assays and instrumentation for screening ion-channel targets” Drug Discov Today 4(9): 431-439).
These voltage sensitive assays are based on the change in fluorescence resonant energy transfer (FRET) between the membrane-soluble, voltage-sensitive dye, DiSBAC2(3), and a fluorescent phospholipid, CC2-DMPE, which is attached to the outer leaflet of the plasma membrane and acts as a FRET donor. Changes in membrane potential (Vm) cause the negatively charged DiSBAC2(3) to redistribute across the plasma membrane and the amount of energy transfer from CC2-DMPE changes accordingly. The changes in fluorescence emission were monitored using VIPR which is an integrated liquid handler and fluorescent detector designed to conduct cell-based screens in 96- or 384-well microtiter plates.
To identify small molecules that correct the trafficking defect associated with ΔF508-CFTR; a single-addition HTS assay format was developed. The cells were incubated in serum-free medium for 16 hrs at 37° C. in the presence or absence (negative control) of test compound. As a positive control, cells plated in 384-well plates were incubated for 16 hrs at 27° C. to “temperature-correct” ΔF508-CFTR. The cells were subsequently rinsed 3× with Krebs Ringers solution and loaded with the voltage-sensitive dyes. To activate ΔF508-CFTR, 10 μM forskolin and the CFTR potentiator, genistein (20 μM), were added along with Cl^−-free medium to each well. The addition of Cl^−-free medium promoted Cl^− efflux in response to LF508-CFTR activation and the resulting membrane depolarization was optically monitored using the FRET-based voltage-sensor dyes.
To identify potentiators of ΔF508-CFTR, a double-addition HTS assay format was developed. During the first addition, a Cl^−-free medium with or without test compound was added to each well. After 22 sec, a second addition of Cl^−-free medium containing 2-10 μM forskolin was added to activate ΔF508-CFTR. The extracellular Cl^− concentration following both additions was 28 mM, which promoted Cl^− efflux in response to ΔF508-CFTR activation and the resulting membrane depolarization was optically monitored using the FRET-based voltage-sensor dyes.
NIH3T3 mouse fibroblasts stably expressing ΔF508-CFTR are used for optical measurements of membrane potential. The cells are maintained at 37° C. in 5% CO2 and 90% humidity in Dulbecco's modified Eagle's medium supplemented with 2 mM glutamine, 10% fetal bovine serum, 1×NEAA, (3-ME, 1× pen/strep, and 25 mM HEPES in 175 cm^2 culture flasks. For all optical assays, the cells were seeded at 30,000/well in 384-well matrigel-coated plates and cultured for 2 hrs at 37° C. before culturing at 27° C. for 24 hrs. for the potentiator assay. For the correction assays, the cells are cultured at 27° C. or 37° C. with and without compounds for 16-24 hoursB) Electrophysiological Assays for assaying ΔF508-CFTR modulation properties of compounds
Compounds of the invention are useful as modulators of ATP binding cassette transporters. Table 3 below illustrates the EC50 and relative efficacy of certain embodiments in Table 1.

T1 sequence (P13569 with tags, fused parts or gaps DEL508-508): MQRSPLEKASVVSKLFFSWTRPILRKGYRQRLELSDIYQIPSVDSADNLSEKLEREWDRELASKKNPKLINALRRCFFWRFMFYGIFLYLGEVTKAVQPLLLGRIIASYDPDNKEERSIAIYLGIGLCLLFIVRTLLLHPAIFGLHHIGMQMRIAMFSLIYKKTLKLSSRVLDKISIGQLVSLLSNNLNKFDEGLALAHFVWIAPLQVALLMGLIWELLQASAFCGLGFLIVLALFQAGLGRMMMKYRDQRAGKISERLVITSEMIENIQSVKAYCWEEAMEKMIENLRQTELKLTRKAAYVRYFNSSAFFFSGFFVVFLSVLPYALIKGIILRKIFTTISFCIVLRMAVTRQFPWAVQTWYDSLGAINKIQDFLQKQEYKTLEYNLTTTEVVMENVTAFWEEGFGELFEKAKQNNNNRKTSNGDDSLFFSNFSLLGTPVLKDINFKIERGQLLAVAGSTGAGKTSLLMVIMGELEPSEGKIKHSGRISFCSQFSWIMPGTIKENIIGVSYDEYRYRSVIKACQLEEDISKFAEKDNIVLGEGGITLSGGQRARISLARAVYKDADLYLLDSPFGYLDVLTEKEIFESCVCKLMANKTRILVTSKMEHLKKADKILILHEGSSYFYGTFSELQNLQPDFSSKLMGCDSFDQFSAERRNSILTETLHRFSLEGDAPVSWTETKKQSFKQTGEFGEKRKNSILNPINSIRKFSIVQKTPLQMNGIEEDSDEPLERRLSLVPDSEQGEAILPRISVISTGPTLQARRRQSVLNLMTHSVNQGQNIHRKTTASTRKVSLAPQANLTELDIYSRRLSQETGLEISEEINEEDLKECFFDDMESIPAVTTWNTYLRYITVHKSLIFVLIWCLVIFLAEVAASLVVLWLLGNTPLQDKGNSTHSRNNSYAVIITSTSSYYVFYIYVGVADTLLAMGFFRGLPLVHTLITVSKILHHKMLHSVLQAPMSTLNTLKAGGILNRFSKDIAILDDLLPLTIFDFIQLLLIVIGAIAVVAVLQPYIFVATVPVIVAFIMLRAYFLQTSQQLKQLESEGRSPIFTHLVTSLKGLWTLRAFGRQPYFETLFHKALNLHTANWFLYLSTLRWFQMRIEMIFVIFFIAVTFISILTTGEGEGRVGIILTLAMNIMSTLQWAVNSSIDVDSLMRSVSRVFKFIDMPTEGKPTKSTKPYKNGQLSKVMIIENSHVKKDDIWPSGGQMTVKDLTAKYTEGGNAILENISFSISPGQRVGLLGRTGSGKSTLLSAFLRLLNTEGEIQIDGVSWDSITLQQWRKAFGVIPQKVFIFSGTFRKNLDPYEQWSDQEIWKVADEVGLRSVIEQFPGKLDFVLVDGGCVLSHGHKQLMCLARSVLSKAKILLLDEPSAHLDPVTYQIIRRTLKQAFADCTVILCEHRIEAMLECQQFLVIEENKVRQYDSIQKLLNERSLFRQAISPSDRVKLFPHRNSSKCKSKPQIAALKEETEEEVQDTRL

| SMILES | EC50 | % Activity |
| --- | --- | --- |
| O=C(Nc1ccc(N2CCN(C(c3ccccc3)c3ccccc3)CC2)cc1)C(=O)c1c[nH]c2ccccc12 [Cmpd 2] | 1000 to 5000 nM | + (“+” means <25%) |
| O=C(Nc1ccccc1)C(=O)c1c[nH]c2ccccc12 [Cmpd 9] | 1000 to 5000 nM | ++ (“++” means between 25% to 100%) |
| Cn1cc(C(=O)C(=O)Nc2ccccc2)c2ccccc21 [Cmpd 16] | > 5000 nM | ++ (“++” means between 25% to 100%) |
| Cn1cc(C(=O)C(=O)Nc2ccccc2-c2ccccc2)c2ccccc21 [Cmpd 17] | > 5000 nM | + (“+” means <25%) |
| O=C(Nc1ccccc1CN1CCCC1)C(=O)c1c[nH]c2ccccc12 [Cmpd 18] | 1000 to 5000 nM | ++ (“++” means between 25% to 100%) |
| Nc1cc(NC(=O)C(=O)c2c[nH]c3ccccc23)cc(C(F)(F)F)c1 [Cmpd 19] | 1000 to 5000 nM | ++ (“++” means between 25% to 100%) |
| Cc1ccc(C)n1-c1ccccc1NC(=O)C(=O)c1c[nH]c2ccccc12 [Cmpd 21] | 1000 to 5000 nM | ++ (“++” means between 25% to 100%) |
| O=C(Nc1ccccc1OC(F)F)C(=O)c1c[nH]c2ccccc12 [Cmpd 22] | 1000 to 5000 nM | ++ (“++” means between 25% to 100%) |
| CC(C)(C)c1cc(C(C)(C)C)c(NC(=O)C(=O)c2c[nH]c3ccccc23)cc1O [Cmpd 24] | < 1000 nM | ++ (“++” means between 25% to 100%) |
| CC(C)(C)c1cc2cc[nH]c2cc1NC(=O)C(=O)c1c[nH]c2ccccc12 [Cmpd 25] | < 1000 nM | ++ (“++” means between 25% to 100%) |
| CC(C)(C)c1ccccc1NC(=O)C(=O)c1c[nH]c2ccccc12 [Cmpd 26] | < 1000 nM | ++ (“++” means between 25% to 100%) |

Results, then the molecule that gave them:

| EC50 | % Activity | SMILES |
| --- | --- | --- |
| < 1000 nM | + (“+” means <25%) | O=C(Nc1ccc(F)cc1)C(=O)c1c[nH]c2ccc(Br)cc12 [Cmpd 1] |
| < 1000 nM | ++ (“++” means between 25% to 100%) | CCc1ccccc1NC(=O)C(=O)c1c[nH]c2ccccc12 [Cmpd 3, N-(2-Ethyl-phenyl)-2-(1H-indol-3-yl)-2-oxo-acetamide] |
| < 1000 nM | ++ (“++” means between 25% to 100%) | O=C(Nc1ccc2cc[nH]c2c1)C(=O)c1c[nH]c2ccccc12 [Cmpd 4] |
| < 1000 nM | ++ (“++” means between 25% to 100%) | CCCc1ccccc1NC(=O)C(=O)c1c[nH]c2ccccc12 [Cmpd 5] |
| < 1000 nM | ++ (“++” means between 25% to 100%) | CC(C)c1ccccc1NC(=O)C(=O)c1c[nH]c2ccccc12 [Cmpd 6] |
| < 1000 nM | ++ (“++” means between 25% to 100%) | CC(C)(C)c1ccc(NC(=O)C(=O)c2c[nH]c3ccccc23)cc1 [Cmpd 7] |
| < 1000 nM | ++ (“++” means between 25% to 100%) | O=C(Nc1ccccc1-c1ccccc1)C(=O)c1c[nH]c2ccccc12 [Cmpd 8] |
| < 1000 nM | ++ (“++” means between 25% to 100%) | O=C(Nc1cccc(C(F)(F)F)n1)C(=O)c1c[nH]c2ccccc12 [Cmpd 10] |
| < 1000 nM | ++ (“++” means between 25% to 100%) | Cc1ccccc1Oc1ccccc1NC(=O)C(=O)c1c[nH]c2ccccc12 [Cmpd 11] |
| < 1000 nM | ++ (“++” means between 25% to 100%) | C=C(C)c1ccccc1NC(=O)C(=O)c1c[nH]c2ccccc12 [Cmpd 12] |
| < 1000 nM | ++ (“++” means between 25% to 100%) | CCCCc1ccccc1NC(=O)C(=O)c1c[nH]c2ccccc12 [Cmpd 13] |
| < 1000 nM | ++ (“++” means between 25% to 100%) | O=C(Nc1ccccc1Oc1ccc(Cl)cc1Cl)C(=O)c1c[nH]c2ccccc12 [Cmpd 14] |
| < 1000 nM | ++ (“++” means between 25% to 100%) | O=C(Nc1ccccc1CN1CCCCC1)C(=O)c1c[nH]c2ccccc12 [Cmpd 15] |
| < 1000 nM | ++ (“++” means between 25% to 100%) | CN1Cc2c(NC(=O)C(=O)c3c[nH]c4ccccc34)cccc2C(c2ccccc2)C1 (stereo not shown) [Cmpd 20] |
| < 1000 nM | ++ (“++” means between 25% to 100%) | O=C(Nc1ccccc1F)C(=O)c1c[nH]c2ccccc12 [Cmpd 23] |
